Measured values from patent US11331369B2, “Endoparasitic depsipeptides” (Zoetis Services LLC, priority 2017, dated 2022).

Experiments:
[1] = tested on: third stage larvae of Haemonchus contortus; test: Haemonchus contortus L3 (HcL3) Assay; assay type: cell-based; settings: 96 h, read-out: HcL3 Minimum Effective Dose (MED)
[2] = tested on: 4th stage larvae (L4) of Dirofilaria immitis; test: Dirofilaria immitis, L4 Stage (DiL4) In Vitro Assay; assay type: cell-based; settings: Dirofilaria immitis, 72 h, read-out: DiL4 Minimum Effective Dose (MED), approximately 72 hours incubation; L4 larvae assessed for survival or paralysis

Compound	minimal effective concentration [1] [µM]	minimal effective concentration [2] [µM]
Cc1cccc(-c2ccnn2Cc2ccc(C[C@H]3OC(=O)[C@H](CC(C)C)N(C)C(=O)[C@@H](C)OC(=O)[C@H](CC(C)C)N(C)C(=O)[C@@H](Cc4ccc(Cn5nccc5-c5cccc(C)n5)cc4)OC(=O)[C@H](CC(C)C)N(C)C(=O)[C@@H](C)OC(=O)[C@H](CC(C)C)N(C)C3=O)cc2)n1 [Example 1b-177, (3S,6R,9S,12R,15S,18R,21S,24R)-3,9,15,21-tetraisobutyl-4,6,10,16,18,22-hexamethyl-12,24-bis(4-((5-(6-methylpyridin-2-yl)-1H-pyrazol-1-yl)methyl)benzyl)-1,7,13,19-tetraoxa-4,10,16,22-tetraazacyclotetracosan-2,5,8,11,14,17,20,23-octaone]	≤ 1	≤ 0.0001
CC(C)C[C@H]1C(=O)O[C@H](Cc2ccc(Cn3nccc3-c3ccc(F)cn3)cc2)C(=O)N(C)[C@@H](CC(C)C)C(=O)O[C@H](C)C(=O)N(C)[C@@H](CC(C)C)C(=O)O[C@H](Cc2ccc(Cn3nccc3-c3ccc(F)cn3)cc2)C(=O)N(C)[C@@H](CC(C)C)C(=O)O[C@H](C)C(=O)N1C [Example 1b-189, (3S,6R,9S,12R,15S,18R,21S,24R)-6,18-bis(4-((5-(5-fluoropyridin-2-yl)-1H-pyrazol-1-yl)methyl)benzyl)-3,9,15,21-tetraisobutyl-4,10,12,16,22,24-hexamethyl-1,7,13,19-tetraoxa-4,10,16,22-tetraazacyclotetracosan-2,5,8,11,14,17,20,23-octaone]	10 to 100	0.0001 to 0.001
CC(C)C[C@H]1C(=O)O[C@H](Cc2ccc(Cn3nccc3-c3cnccn3)cc2)C(=O)N(C)[C@@H](CC(C)C)C(=O)O[C@H](C)C(=O)N(C)[C@@H](CC(C)C)C(=O)O[C@H](Cc2ccc(Cn3nccc3-c3cnccn3)cc2)C(=O)N(C)[C@@H](CC(C)C)C(=O)O[C@H](C)C(=O)N1C [Example 1b-208, (3S,6R,9S,12R,15S,18R,21S,24R)-3,9,15,21-tetraisobutyl-4,6,10,16,18,22-hexamethyl-12,24-bis(4-((5-(pyrazin-2-yl)-1H-pyrazol-1-yl)methyl)benzyl)-1,7,13,19-tetraoxa-4,10,16,22-tetraazacyclotetracosan-2,5,8,11,14,17,20,23-octaone]	10 to 100	0.001 to 0.01
COC(C)c1ccnn1Cc1ccc(C[C@H]2OC(=O)[C@H](CC(C)C)N(C)C(=O)[C@@H](C)OC(=O)[C@H](CC(C)C)N(C)C(=O)[C@@H](Cc3ccc(Cn4nccc4C(C)OC)cc3)OC(=O)[C@H](CC(C)C)N(C)C(=O)[C@@H](C)OC(=O)[C@H](CC(C)C)N(C)C2=O)cc1 (stereo partly drawn) [Example 1b-212, (3S,6R,9S,12R,15S,18R,21S,24R)-3,9,15,21-tetraisobutyl-6,18-bis(4-((5-(1-methoxyethyl)-1H-pyrazol-1-yl)methyl)benzyl)-4,10,12,16,22,24-hexamethyl-1,7,13,19-tetraoxa-4,10,16,22-tetraazacyclotetracosan-2,5,8,11,14,17,20,23-octaone]	≤ 1	0.0001 to 0.001
CC(C)C[C@H]1C(=O)O[C@H](Cc2ccc(C3(n4cccn4)CCC3)cc2)C(=O)N(C)[C@@H](CC(C)C)C(=O)O[C@H](C)C(=O)N(C)[C@@H](CC(C)C)C(=O)O[C@H](Cc2ccc(C3(n4cccn4)CCC3)cc2)C(=O)N(C)[C@@H](CC(C)C)C(=O)O[C@H](C)C(=O)N1C [Example 1c-1, (3S,6R,9S,12R,15S,18R,21S,24R)-6,18-bis(4-(1-(1H-pyrazol-1-yl)cyclobutyl)benzyl)-3,9,15,21-tetraisobutyl-4,10,12,16,22,24-hexamethyl-1,7,13,19-tetraoxa-4,10,16,22-tetraazacyclotetracosan-2,5,8,11,14,17,20,23-octaone]	≤ 1	≤ 0.0001
CC(C)C[C@H]1C(=O)O[C@H](Cc2ccc(C3(n4cc(OC(C)C)cn4)CCC3)cc2)C(=O)N(C)[C@@H](CC(C)C)C(=O)O[C@H](C)C(=O)N(C)[C@@H](CC(C)C)C(=O)O[C@H](Cc2ccc(C3(n4cc(OC(C)C)cn4)CCC3)cc2)C(=O)N(C)[C@@H](CC(C)C)C(=O)O[C@H](C)C(=O)N1C [Example 1c-3, (3S,6R,9S,12R,15S,18R,21S,24R)-3,9,15,21-tetraisobutyl-6,18-bis(4-(1-(4-isopropoxy-1H-pyrazol-1-yl)cyclobutyl)benzyl)-4,10,12,16,22,24-hexamethyl-1,7,13,19-tetraoxa-4,10,16,22-tetraazacyclotetracosan-2,5,8,11,14,17,20,23-octaone]	≤ 1	≤ 0.0001
CC(C)C[C@H]1C(=O)O[C@H](Cc2ccc(C(C3CC3)n3cccn3)cc2)C(=O)N(C)[C@@H](CC(C)C)C(=O)O[C@H](C)C(=O)N(C)[C@@H](CC(C)C)C(=O)O[C@H](Cc2ccc(C(C3CC3)n3cccn3)cc2)C(=O)N(C)[C@@H](CC(C)C)C(=O)O[C@H](C)C(=O)N1C (stereo partly drawn) [Example 1c-4, (3S,6R,9S,12R,15S,18R,21S,24R)-6,18-bis(4-(cyclopropyl(1H-pyrazol-1-yl)methyl)benzyl)-3,9,15,21-tetraisobutyl-4,10,12,16,22,24-hexamethyl-1,7,13,19-tetraoxa-4,10,16,22-tetraazacyclotetracosan-2,5,8,11,14,17,20,23-octaone]	≤ 1	0.0001 to 0.001
CC(C)C[C@H]1C(=O)O[C@H](Cc2ccc(C(C)(C)n3cccn3)cc2)C(=O)N(C)[C@@H](CC(C)C)C(=O)O[C@H](C)C(=O)N(C)[C@@H](CC(C)C)C(=O)O[C@H](Cc2ccc(C(C)(C)n3cccn3)cc2)C(=O)N(C)[C@@H](CC(C)C)C(=O)O[C@H](C)C(=O)N1C [Example 1c-6, (3S,6R,9S,12R,15S,18R,21S,24R)-6,18-bis(4-(2-(1H-pyrazol-1-yl)propan-2-yl)benzyl)-3,9,15,21-tetraisobutyl-4,10,12,16,22,24-hexamethyl-1,7,13,19-tetraoxa-4,10,16,22-tetraazacyclotetracosan-2,5,8,11,14,17,20,23-octaone]	≤ 1	≤ 0.0001
CC(C)C[C@H]1C(=O)O[C@H](Cc2ccc(C(C)(C)n3cc(OC(C)C)cn3)cc2)C(=O)N(C)[C@@H](CC(C)C)C(=O)O[C@H](C)C(=O)N(C)[C@@H](CC(C)C)C(=O)O[C@H](Cc2ccc(C(C)(C)n3cc(OC(C)C)cn3)cc2)C(=O)N(C)[C@@H](CC(C)C)C(=O)O[C@H](C)C(=O)N1C [Example 1c-10, (3S,6R,9S,12R,15S,18R,21S,24R)-3,9,15,21-tetraisobutyl-6,18-bis(4-(2-(4-isopropoxy-1H-pyrazol-1-yl)propan-2-yl)benzyl)-4,10,12,16,22,24-hexamethyl-1,7,13,19-tetraoxa-4,10,16,22-tetraazacyclotetracosan-2,5,8,11,14,17,20,23-octaone]	≤ 1	≤ 0.0001
CC(C)C[C@H]1C(=O)O[C@H](Cc2ccc(Cn3cccn3)cc2)C(=O)N(C)[C@@H](CC(C)C)C(=O)O[C@H](C)C(=O)N(C)[C@@H](CC(C)C)C(=O)O[C@H](Cc2ccccc2)C(=O)N(C)[C@@H](CC(C)C)C(=O)O[C@H](C)C(=O)N1C [Example 2-1, (3S,6R,9S,12R,15S,18R,21S,24R)-6-benzyl-3,9,15,21-tetraisobutyl-4,10,12,16,22,24-hexamethyl-18-[[4-(pyrazol-1-ylmethyl)phenyl]methyl]-1,7,13,19-tetraoxa-4,10,16,22-tetrazacyclotetracosane-2,5,8,11,14,17,20,23-octaone]	1 to 10	0.0001 to 0.001
CC(C)C[C@H]1C(=O)O[C@H](Cc2ccc(Cn3ccnc3Br)cc2)C(=O)N(C)[C@@H](CC(C)C)C(=O)O[C@H](C)C(=O)N(C)[C@@H](CC(C)C)C(=O)O[C@H](Cc2ccc(Cn3ccnc3Br)cc2)C(=O)N(C)[C@@H](CC(C)C)C(=O)O[C@H](C)C(=O)N1C [Example 6-3, (3S,6R,9S,12R,15S,18R,21S,24R)-6,18-bis[[4-[(2-bromoimidazol-1-yl)methyl]phenyl]methyl]-3,9,15,21-tetraisobutyl-4,10,12,16,22,24-hexamethyl-1,7,13,19-tetraoxa-4,10,16,22-tetrazacyclotetracosane-2,5,8,11,14,17,20,23-octaone]	1 to 10	≤ 0.0001
CC(C)C[C@H]1C(=O)O[C@H](Cc2ccc(Cn3ccnc3Cl)cc2)C(=O)N(C)[C@@H](CC(C)C)C(=O)O[C@H](C)C(=O)N(C)[C@@H](CC(C)C)C(=O)O[C@H](Cc2ccc(Cn3ccnc3Cl)cc2)C(=O)N(C)[C@@H](CC(C)C)C(=O)O[C@H](C)C(=O)N1C [Example 6-9, (3S,6R,9S,12R,15S,18R,21S,24R)-6,18-bis(4-((2-chloro-1H-imidazol-1-yl)methyl)benzyl)-3,9,15,21-tetraisobutyl-4,10,12,16,22,24-hexamethyl-1,7,13,19-tetraoxa-4,10,16,22-tetraazacyclotetracosan-2,5,8,11,14,17,20,23-octaone]	1 to 10	≤ 0.0001
CC(C)C[C@H]1C(=O)O[C@H](Cc2ccc(Cn3ccnc3Cl)cc2)C(=O)N(C)[C@@H](CC(C)C)C(=O)O[C@H](C)C(=O)N(C)[C@@H](CC(C)C)C(=O)O[C@H](Cc2ccccc2)C(=O)N(C)[C@@H](CC(C)C)C(=O)O[C@H](C)C(=O)N1C [Example 8-9, (3S,6R,9S,12R,15S,18R,21S,24R)-6-benzyl-18-(4-((2-chloro-1H-imidazol-1-yl)methyl)benzyl)-3,9,15,21-tetraisobutyl-4,10,12,16,22,24-hexamethyl-1,7,13,19-tetraoxa-4,10,16,22-tetraazacyclotetracosan-2,5,8,11,14,17,20,23-octaone]	1 to 10	0.0001 to 0.001
